The target in assay [1] is T1, CDK1:Cyclin-B (Homo sapiens, UniProt P06493).
T1 construct: purchased New England Biolabs, Beverly, MA 6020; host or cells: insect cells
Put plainly: CDK1 Screening Assay. Format: biochemical. Particulars: read-out: Kinase Assay (IC50 uM) CDK1. The protocol:
(§1) 70 µL of the kinase reaction mixture was dispensed into the well of a streptavidin coated FlashPlate™ (Cat. # SMP103, NEN, Boston, MA). Then 1 µL of test compound stock in 100% DMSO was added to the wells resulting in a final concentration of 1% DMSO in the reaction with a 100 µl final reaction volume. Next, CDK1:Cyclin-B protein was diluted in 50 mM Tris-HCl pH=8.0, 0.1% BSA at a concentration of 1 ng per µL and 30 µl (30ng enzyme per test well) was added to each well to initiate the reaction. The reaction was incubated for one hour at 30°C. At the end of the 1-hour incubation, the reaction was terminated by aspirating the reaction mixture from the plate and washing the wells twice with PBS containing 100 mM EDTA. The histone-H1 biotinylated peptide substrate became immobilized on the Flashplate™ and the incorporation of ^33P-γ-ATP was measured by reading the plate on a scintillation counter. Inhibition of the enzymatic activity of CDK1 was measured by observing a reduced amount of ^33P-γ-ATP incorporated into the immobilized peptide. […]

In assay [2] the target is T2, VEGF-R (vascular endothelial growth factor receptor-2) (Rattus norvegicus, UniProt O08775).
T2 construct: 6xHis (polyhistidine) (N)
Description: VEGF-R Screening Assay. Type of assay: biochemical. Particulars: read-out: Kinase Assay (IC50 uM) VEGF-R. The protocol:
as §1, with “a 100 µL final reaction” for “a 100 µl final reaction”, “volume. Next, soluble rat tyrosine kinase containing an N-terminal 6XHIS tag was diluted” for “volume. Next, CDK1:Cyclin-B protein was diluted”, “concentration of 5 ng per” for “concentration of 1 ng per”, “and 30 µL (150 ng enzyme per” for “and 30 µl (30ng enzyme per”, “EDTA. The PLC1 biotinylated peptide” for “EDTA. The histone-H1 biotinylated peptide”, “activity of the VEGF-R was measured” for “activity of CDK1 was measured”

Assay [3] deals with PKC (protein kinase-C). Description: Kinase Selectivity Assay PKC. Type of assay: biochemical, human.
The subject of assay [4] is HeLa cervical adenocarcinoma. Description: Inhibition of Cell Proliferation, 14C-thymidine incorporation, HeLa. Type of assay: cell-based. Particulars: Homo sapiens; Cell Line HeLa. The protocol: (§2) The ability of a test compound to inhibit the proliferation of cell growth was determined by measuring incorporation of ^14C-labelled thymidine into newly synthesized DNA within the cells. This method was used on cell lines derived from carcinomas originating from several tissues such as HeLa cervical adenocarcinoma (American Type Culture Collection (ATCC), Virginia, Cat. #CCL-2), A375 malignant melanoma (ATCC CRL-1619), SK-OV-3 ovarian adenocarcinoma (ATCC HTB-77) HCT-116 colon carcinoma (CCL-247), PC-3 prostate adenocarcinoma (ATCC CRL-1435), and MDA-MB-231 (Xenogen Corp.) In this way the effect of a compound on cell growth of cells with many different phenotypes can be determined. Cells were trypsinized and counted and 3000-8000 cells were added to each well of a 96-well CytoStar tissue culture treated scintillating microplate (Amersham #RPNQ0160) in complete medium in a volume of 100 µl. Cells were incubated for 24 hours in complete medium at 37°C in an atmosphere containing 5% CO2. Next, 1 µl of test compound in 100% DMSO was added to the wells of the plate. DMSO only was added to control wells. Cells were incubated for 24 more hours in complete medium at 37°C in an atmosphere containing 5% CO2. Methyl^14C-thymidine 56 mCi/mmol (NEN #NEC568 or Amersham #CFA532) was diluted in complete medium and 0.2 uCi/well was added to each well of the CytoStar plate in a volume of 20 ul. The plate was incubated for 24 hours at 37°C plus 5% CO2 in drug plus ^14C-thymidine. The contents of the plate were discarded into a ^14C radioactive waste container by inverting the plate and the plate was washed twice with 200 µl PBS. 200 µl of PBS is added to each well. The top of the plate was sealed with a transparent plate sealer and a white plate backing sealer (Packard #6005199) was applied to the bottom of the plate. The degree of methyl ^14C-thymidine incorporation was quantified on a Packard Top Count.
On the technique in general: Uptake of a labelled nucleoside into DNA is a usual measure of proliferation.

In assay [5] the test system is A375 malignant melanoma. Put plainly: Inhibition of Cell Proliferation, 14C-thymidine incorporation, A375. Type of assay: cell-based. Particulars: Homo sapiens, A-375; Cell Line A375. The protocol:
as §2

Assay [6] deals with HCT-116 colon carcinoma. Description: Inhibition of Cell Proliferation, 14C-thymidine incorporation, HCT-116. Type of assay: cell-based. Conditions: Homo sapiens; Cell Line HCT-116. The protocol:
as §2

Assay [7] has as its target T3, HER2 (human epidermal growth factor receptor-2) (Homo sapiens, UniProt P04626).
T3 construct: begins at amino acid 676 followed by the remainder of the HER2 cytoplasmic domain; polyhistidine (N)
Description: Kinase Selectivity Assay HER2. Type of assay: biochemical. Conditions: read-out: Kinase Assay (IC50 uM) HER2 Kinase.

The target of assay [8] is T4, EGFR (epidermal growth factor receptor) (Homo sapiens, UniProt P00533).
T4 construct: is purified from human A431 cell membranes (Sigma, St. Louis, MO, Cat.# E3641); purchased Sigma, St. Louis, MO E3641; host or cells: human A431 cell membranes (endogenous protein)
Description: Kinase Selectivity Assay EGF-R. Type of assay: biochemical. Particulars: read-out: Kinase Assay (IC50 uM) EGF-R.

Assay [9] relates to PC-3 prostate adenocarcinoma. Description: Inhibition of Cell Proliferation, 14C-thymidine incorporation, PC-3. Type of assay: cell-based. Conditions: Cell Line PC-3. The protocol:
as §2

Structures are written as SMILES. Where only a bound is given, the exact number is not on record here.

T2 sequence (O08775 786-1343): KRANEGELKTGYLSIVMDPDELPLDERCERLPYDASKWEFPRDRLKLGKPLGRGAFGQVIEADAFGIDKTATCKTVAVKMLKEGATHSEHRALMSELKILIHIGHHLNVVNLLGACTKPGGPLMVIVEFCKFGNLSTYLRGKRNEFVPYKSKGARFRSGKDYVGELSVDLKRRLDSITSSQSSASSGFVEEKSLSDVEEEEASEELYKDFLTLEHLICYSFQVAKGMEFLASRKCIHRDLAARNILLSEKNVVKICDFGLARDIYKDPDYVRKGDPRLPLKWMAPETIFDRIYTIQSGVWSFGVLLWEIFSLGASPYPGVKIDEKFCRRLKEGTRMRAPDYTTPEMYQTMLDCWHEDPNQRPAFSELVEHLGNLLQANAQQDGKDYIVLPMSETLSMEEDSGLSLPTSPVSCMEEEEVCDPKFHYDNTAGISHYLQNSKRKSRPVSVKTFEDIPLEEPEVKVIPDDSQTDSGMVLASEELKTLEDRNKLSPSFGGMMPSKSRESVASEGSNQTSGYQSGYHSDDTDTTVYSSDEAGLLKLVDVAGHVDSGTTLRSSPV
T3 sequence (P04626 676-1255 limits assumed): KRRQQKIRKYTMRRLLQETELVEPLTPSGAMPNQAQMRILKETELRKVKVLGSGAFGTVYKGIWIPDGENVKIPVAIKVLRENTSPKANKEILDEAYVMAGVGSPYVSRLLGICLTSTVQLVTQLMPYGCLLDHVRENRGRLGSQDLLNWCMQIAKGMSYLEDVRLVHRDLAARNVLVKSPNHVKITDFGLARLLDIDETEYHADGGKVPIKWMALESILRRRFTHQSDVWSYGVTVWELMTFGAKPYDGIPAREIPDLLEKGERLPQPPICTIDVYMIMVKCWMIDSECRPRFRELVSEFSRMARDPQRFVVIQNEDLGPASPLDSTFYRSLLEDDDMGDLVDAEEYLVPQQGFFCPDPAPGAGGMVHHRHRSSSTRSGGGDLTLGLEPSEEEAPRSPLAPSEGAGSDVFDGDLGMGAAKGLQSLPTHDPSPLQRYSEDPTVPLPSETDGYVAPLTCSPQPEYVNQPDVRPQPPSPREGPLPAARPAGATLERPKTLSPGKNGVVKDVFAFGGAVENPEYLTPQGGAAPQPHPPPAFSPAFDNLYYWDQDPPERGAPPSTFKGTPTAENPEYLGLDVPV
T4 sequence (P00533 25-1210): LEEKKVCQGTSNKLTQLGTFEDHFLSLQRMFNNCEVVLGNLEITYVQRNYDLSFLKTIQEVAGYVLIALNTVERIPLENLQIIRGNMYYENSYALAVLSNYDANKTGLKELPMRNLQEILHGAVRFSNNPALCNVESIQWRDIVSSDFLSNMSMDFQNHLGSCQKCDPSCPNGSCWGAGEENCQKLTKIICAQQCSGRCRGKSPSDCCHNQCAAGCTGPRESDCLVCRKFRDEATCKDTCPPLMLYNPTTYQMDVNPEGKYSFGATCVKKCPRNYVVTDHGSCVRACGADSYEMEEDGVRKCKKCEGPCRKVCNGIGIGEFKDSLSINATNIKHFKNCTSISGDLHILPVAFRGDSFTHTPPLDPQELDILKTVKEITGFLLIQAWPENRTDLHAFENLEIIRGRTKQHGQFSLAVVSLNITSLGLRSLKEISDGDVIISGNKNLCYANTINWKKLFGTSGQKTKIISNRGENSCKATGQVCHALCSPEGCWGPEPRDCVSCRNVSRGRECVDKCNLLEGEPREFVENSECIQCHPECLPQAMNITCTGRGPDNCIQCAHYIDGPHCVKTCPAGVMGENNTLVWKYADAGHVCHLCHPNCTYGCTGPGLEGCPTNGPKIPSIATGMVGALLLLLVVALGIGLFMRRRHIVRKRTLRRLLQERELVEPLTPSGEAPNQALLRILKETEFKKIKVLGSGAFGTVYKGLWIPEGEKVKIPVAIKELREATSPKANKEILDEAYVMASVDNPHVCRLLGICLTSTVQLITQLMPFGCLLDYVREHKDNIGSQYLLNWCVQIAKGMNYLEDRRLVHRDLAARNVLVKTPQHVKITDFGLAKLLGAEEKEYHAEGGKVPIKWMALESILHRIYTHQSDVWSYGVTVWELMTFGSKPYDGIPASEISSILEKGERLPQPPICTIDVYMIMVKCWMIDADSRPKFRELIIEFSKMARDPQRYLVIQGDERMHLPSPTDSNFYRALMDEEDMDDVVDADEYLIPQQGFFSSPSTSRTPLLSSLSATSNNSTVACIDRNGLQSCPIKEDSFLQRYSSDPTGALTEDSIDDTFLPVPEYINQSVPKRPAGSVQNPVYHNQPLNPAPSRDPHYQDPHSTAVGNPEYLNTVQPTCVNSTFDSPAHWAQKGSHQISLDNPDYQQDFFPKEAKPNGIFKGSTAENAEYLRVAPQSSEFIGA
T1 sequence (P06493 whole entry): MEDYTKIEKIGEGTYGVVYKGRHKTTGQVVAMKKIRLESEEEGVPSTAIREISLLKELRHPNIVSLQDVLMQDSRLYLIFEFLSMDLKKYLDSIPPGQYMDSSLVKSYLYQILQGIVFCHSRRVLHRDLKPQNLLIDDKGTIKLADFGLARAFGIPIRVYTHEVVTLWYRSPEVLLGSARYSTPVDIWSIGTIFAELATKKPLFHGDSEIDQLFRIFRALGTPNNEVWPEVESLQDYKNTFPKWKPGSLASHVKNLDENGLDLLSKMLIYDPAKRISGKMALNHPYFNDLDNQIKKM
T1 sequence (P14635 whole entry partner): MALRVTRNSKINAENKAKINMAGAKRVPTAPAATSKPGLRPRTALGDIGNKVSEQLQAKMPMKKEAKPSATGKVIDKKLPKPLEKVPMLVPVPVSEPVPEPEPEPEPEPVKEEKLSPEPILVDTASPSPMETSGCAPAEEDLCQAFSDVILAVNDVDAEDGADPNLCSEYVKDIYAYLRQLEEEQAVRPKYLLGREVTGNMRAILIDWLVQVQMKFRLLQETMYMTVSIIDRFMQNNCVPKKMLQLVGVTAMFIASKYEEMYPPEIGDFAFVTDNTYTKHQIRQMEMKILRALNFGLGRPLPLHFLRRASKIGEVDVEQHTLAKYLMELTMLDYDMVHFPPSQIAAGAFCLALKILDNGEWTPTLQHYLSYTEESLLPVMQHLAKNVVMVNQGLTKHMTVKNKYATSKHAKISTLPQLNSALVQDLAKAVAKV

Usually IC50 stands for the concentration at which inhibition is half-maximal. Turning to `CCc1ccc(C(=O)n2nc(Nc3ccc(S(=O)(=O)Nc4ccccn4)cc3)nc2N)s1` [Cpd 119, 4-[[5-amino-1-[(5-ethyl-2-thienyl)carbonyl]-1H-1,2,4-triazol-3-yl]amino]-N-(2-pyridinyl)-benzenesulfonamide], the IC50 is 0.067 µM in assay [1]; 0.057 µM in [2]; greater than 100 µM in assay [3]; 146 nM in assay [4]; 199 nM in assay [5]; 117 nM in assay [6].

For the compound `Cc1ccsc1C(=O)n1nc(Nc2ccc(S(=O)(=O)Nc3ccccn3)cc2)nc1N` [Cpd 121, 4-[[5-amino-1-[(3-methyl-2-thienyl)carbonyl]-1H-1,2,4-triazol-3-yl]amino]-N-(2-pyridinyl)-benzenesulfonamide], the IC50 in assay [1] was 0.099 µM; in assay [2], 0.027 µM; in [7], 0.717 µM; in assay [8] it was greater than 10 µM.

Regarding `Cc1cc(C)c(C(=O)n2nc(Nc3ccc(S(=O)(=O)NCCN(C)C)cc3)nc2N)s1` [Cpd 107, 4-[[5-amino-1-[(3,5-dimethyl-2-thienyl)carbonyl]-1H-1,2,4-triazol-3-yl]amino]-N-[2-(dimethylamino)ethyl]-benzenesulfonamide], the IC50 was found to be 0.014 µM in assay [1], 0.032 µM in assay [2], 0.03 µM in assay [7] and 0.936 µM in assay [8].

For `Cc1ccc(F)c(C(=O)n2nc(Nc3ccc(S(=O)(=O)NCCN(C)C)cc3)nc2N)c1F` [Cpd 105, 4-[[5-amino-1-(2,6-difluoro-3-methylbenzoyl)-1H-1,2,4-triazol-3-yl]amino]-N-[2-(dimethylamino)ethyl]-benzenesulfonamide], the IC50 is 0.046 µM in assay [1], 0.276 µM in [2], 0.845 µM in assay [7] and 9.6 µM in [8].

Take `Cc1ccc(F)c(C(=O)n2nc(Nc3ccc(N4CCNC4=O)cc3)nc2N)c1F` [Cpd 114, 1-[4-[[5-amino-1-(2,6-difluoro-3-methylbenzoyl)-1H 1,2,4-triazol-3-yl]amino]phenyl]-2-imidazolidinone]: the IC50 in assay [1] was 0.228 µM; in [2], 0.313 µM; in assay [7], 1.39 µM; in assay [8], greater than 100 µM.

Turning to `Nc1nc(Nc2ccc(S(N)(=O)=O)cc2)nn1C(=S)Nc1c(F)cccc1F` [Cpd 66, 5-amino-3-[[4-(aminosulfonyl)phenyl]amino]-N-(2,6-difluorophenyl)-1H-1,2,4-triazole-1-carbothioamide], the IC50 was determined as 35 nM in assay [4], 92 nM in assay [5] and 20 nM in assay [6].

`Nc1nc(Nc2ccc(N3CCCS3(=O)=O)cc2)nn1C(=O)c1c(F)cccc1F` [Cpd 117, 1-(2,6-difluorobenzoyl)-N^3-[4-(1,1-dioxido-2-isothiazolidinyl)phenyl]-1H-1,2,4-triazole-3,5-diamine]: the values for the IC50 in assay [1], in [7] and in assay [8] were 0.035 µM, 5.44 µM and greater than 100 µM, respectively.

As to `Nc1nc(Nc2ccc(N3CCNC3=O)cc2)nn1C(=O)c1c(F)cccc1F` [Cpd 115, 1-[4-[[5-axnino-1-(2,6-difluorobenzoyl)-1H-1,2,4-triazol-3-yl]amino]phenyl]-2-imidazolidinone], the IC50 in [1] is 0.313 µM; in [2], 0.467 µM; in assay [7] it was 1.44 µM; in [8] it was greater than 10 µM.

For the compound `Cc1ccsc1C(=O)n1nc(Nc2ccc(NS(C)(=O)=O)cc2)nc1N` [Cpd 109, N-[4-[[5-amino-1-[(3-methyl-2-thienyl)carbonyl]-1H-1,2,4-triazol-3-yl]amino]phenyl]-methanesulfonamide], the IC50 is 0.147 µM in [1], 0.025 µM in [2], 0.17 µM in assay [7] and greater than 100 µM in [8].

As to `Cc1ccc(F)c(C(=O)n2nc(Nc3ccc(S(N)(=O)=O)cc3)nc2N)c1Cl` [Cpd 69, 4-[[5-amino-1-(2-chloro-6-fluoro-3-methylbenzoyl)-1H-1,2,4-triazol-3-yl]amino]-benzenesulfonamide], the IC50 in assay [2] was 0.685 µM; in assay [7] it was 0.139 µM; in assay [8] it was greater than 100 µM; in assay [9], 8 nM.

Consider `Nc1nc(Nc2ccc(S(N)(=O)=O)cc2)n(C(=S)Nc2c(F)cccc2F)n1` [Cpd 128, 3-amino-5-[[4-(aminosulfonyl)phenyl]amino]-N-(2,6-difluorophenyl)-1H-1,2,4-triazole-1-carbothioamide], for which the IC50 was 0.11 µM in [7]; greater than 100 µM in [8]; 128 nM in [4]; 968 nM in assay [5]; 910 nM in [6].

For the compound `Cc1ccsc1C(=O)n1nc(Nc2ccc(S(N)(=O)=O)cc2)nc1N` [Cpd 15, 4-[[5-amino-1-[(3-methyl-2-thienyl)carbonyl]-1H-1,2,4-triazol-3-yl]amino]-benzenesulfonamide], the IC50 in [4] was 91 nM; in assay [5], 247 nM; in assay [6], 127 nM; in [9] it was 107 nM.

With `CNS(=O)(=O)c1ccc(Nc2nc(N)n(C(=O)c3c(F)ccc(C)c3F)n2)cc1` [Cpd 81, 4-[[5-amino-1-(2,6-difluoro-3-methylbenzoyl)-1H-1,2,4-triazol-3-yl]amino]-N-methyl-benzenesulfonamide], the IC50 in assay [1] is 0.018 µM; in assay [2], 0.482 µM; in assay [7], 1.7 µM; in [8], greater than 100 µM.

On to `Cc1ccsc1C(=O)n1nc(Nc2ccc(-n3cncn3)cc2)nc1N` [Cpd 99, 1-[(3-methyl-2-thienyl)carbonyl]-N^3-[4-(1H-1,2,4-triazol-1-yl)phenyl]-1H-1,2,4-triazole-3,5-diamine], for which the IC50 was 0.366 µM in assay [1], 0.095 µM in assay [7], greater than 100 µM in assay [3] and greater than 100 µM in assay [8].

In the case of `Nc1nc(Nc2ccc(S(N)(=O)=O)cc2)nn1C(=O)C1CCCC1` [Cpd 38, 4-[[5-amino-1-(cyclopentylcarbonyl)-1H-1,2,4-triazol-3-yl]amino]-benzenesulfonamide], the IC50 in assay [1] is 0.029 µM; in assay [2], 0.88 µM; in assay [8] it was greater than 100 µM.

Turning to `CNS(=O)(=O)c1ccc(Nc2nc(N)n(C(=O)c3sc(C)cc3C)n2)cc1` [Cpd 83, 4-[[5-amino-1-[(3,5-dimethyl-2-thienyl)carbonyl]-1H-1,2,4-triazol-3-yl]amino]-N-methyl-benzenesulfonamide], the results for the IC50 in assay [1], in [2] and in assay [8] were 0.008 µM, 0.04 µM and greater than 100 µM, respectively.

(Values after patent EP1712550A2, “Substituted triazole diamine derivatives as kinase inhibitors” (priority 2000, dated 2002).)
